The values below come from US20060067942A1, “Pharmaceutical agent comprising amino acids, peptides, proteins and/or fractions and fragments thereof and the use of same in the prophylaxis and treatment of immune system deficiency in humans and animals” (priority 2004, published 2006).

Where “and” joins values, the source holds several entries; their conditions need not be identical. Equal values may be shown once.

One experiment deals with T-lymphocytes. Kind of experiment: E-rosette test in immunosuppressed guinea pigs. In kind it is in vivo, guinea pig. The source says:
Guinea pig's T-lymphocytes bind rabbits erythrocytes on their surface, this ability is used to observe the dynamics of changes in the number of T-lymphocytes. The number of the human T-lymphocytes is one of the parameters of evaluation of cellular immunity in the clinical immunology. […] The first step was to determine the number of T-lymphocytes by using the E-rosette assay in the 8 Guinea pigs in the weight range 260-310 g. The second step was to decrease the number of T-lymphocytes. This was done using the immunosuppressant Azathioprin. The application of this is per os for 7 of the guinea pigs. The 8th guinea pig will be used as a control without application of the immunosuppressant. The second determination of the T-lymphocytes followed 7 days after the application of the immunosuppressant. […] One of the suppressed guinea pigs was used as a control suppressed animal.
The level of E-rosettes was determined on the first day from the blood of 12 experimental guinea pigs. On the second day, 8 animals (group A) were treated i.p. with oxoplatin as an anti-tumor agent and 3 animals (group B) were treated with double the dose of oxoplatin. The final guinea pig was used as a control. The level of E-rosettes was determined 5 days later.
The level of the E-rosettes in 3 guinea pigs with low values of E-rosettes was determined again at day 35.
The level of E-rosettes in 9 experimental guinea pigs was determined on the 1st day. On the second day 8 animals were injected with Campto and one was without application. The level of E-rosettes in all guinea pigs was determined on the 7th day of experiment. […] On day 22 of the experiment one guinea pig had E-rosette production determined. The level of E-rosettes was then determined again in all animals on day 29.
The level of E-rosettes in 9 experimental guinea pigs was determined on the first day. On the second day, 8 guinea pigs were injected with Taxol. The level of E-rosettes was determined again on the 7th day of experimentation. […] The level of E-rosettes in all guinea pigs was determined on the 29th day.
The level of the E-rosettes in 10 experimental guinea pigs was determined on the first day. On the second day, 9 guinea pigs were injected with Eloxatin. The level of E-rosettes were determined on the 7th day of experimentation. […] The final level of E-rosettes was then determined on the 30th day of experimentation.

In the next experiment the test system is CD4+ T lymphocytes. Kind of experiment: Intracellular staining for IFNg and CD69 expression on CD4+ lymphocytes in whole blood. Type of experiment: cell-based, human. The conditions noted are these: for % CD69+ cells / % CD69+/IFNg+ cells: CD4+ lymphocytes, 0.5 ml blood + 50 μg preparation or 10 μg PHA. The procedure:
Briefly, whole peripheral blood was collected into sodium heparin. […] Addition of 10 μl Brefeldin A (Sigma, 10 μg/ml) to all tubes. Incubation for new 4 hours at 37° C., 5% CO2. Brefeldin A is an agent which arrest produced cytokine intracellular. Surface and intracellular staining for T-lymphocytes was performed according to the manufacturer rules with monoclonal antibodies against CD3, CD4, CD69 and IFNg from FastImmune CD4 Intracellular Cytokine Detection kit (BD). Red blood cells were lysed with FACS Lysing solution for 10 min. at room temperature. Permeabilization of lymphocytes was achieved using FACS Permeabilizing solution (BD) for 10 min. The activation and intracellular cytokine expression was evaluated by the staining with CD4/CD69/IGNg monoclonal antibodies

The next experiment deals with human PBMC. Kind of experiment: Lymphocyte proliferation in vitro (Stimulation index, Thymidine uptake). The following applies: PHA positive control. Type of experiment: cell-based. How it is done:
T-lymphocyte activation can be assessed directly by: • a) De novo expression or increase of activation markers such as CD69 on T lymphocytes (CD69+/CD4+ cells) after 4 hours activation • b) Measuring blastogenesis and/or proliferation of cells to phytomitogens (such as Phytohemagglutinin, PHA), common antigens or other substances evaluated 72 hours after activation • c) Antigen-induced release of cytokines (in this case the preparation-induced intra-cellular expression of IFNg in CD4+ T lymphocytes) Methods
Heparinized venous blood from 5 healthy volunteers (women, aged 35-52 years) has been used for the performance of the following investigations:
In vitro proliferation of PBMC from 5 healthy individuals is presented as Stimulation index in Table 2. The PHA-induced proliferation, used here as a positive control, verified good culturing conditions, as it is shown mean proliferation index 184.5±142.8 at 72 hours. As it is expected, at 6 day SI of PHA stimulation is dropping (it is a mitogen), but the cell cultures were intact.
That is why we tested it's stimulation activity at 3 days and 6 days activation period.

Turning to `CCc1c2c(nc3ccc(OC(=O)N4CCC(N5CCCCC5)CC4)cc13)-c1cc3c(c(=O)n1C2)COC(=O)[C@]3(O)CC` [Campto], in the experiment on T-lymphocytes (Experiment 2, injected day 2, determined 7th day), the “decrease of production of E-rosettes after application of Campto” value worked out at 22.7%.

Consider `O=C1[O][Pt]2([NH][C@@H]3CCCC[C@H]3[NH]2)[O]C1=O` [Eloxatin], for which the “decrease of formation of E-rosettes after application of Eloxatin” value with T-lymphocytes (Experiment 4, injected day 2, determined 7th day) was determined as 22%.

For the compound `CC(=O)O[C@H]1C(=O)[C@@]2(C)[C@H]([C@H](OC(=O)c3ccccc3)[C@]3(O)C[C@H](OC(=O)[C@H](O)[C@@H](NC(=O)c4ccccc4)c4ccccc4)C(C)=C1C3(C)C)[C@]1(OC(C)=O)CO[C@@H]1C[C@@H]2O` [Taxol], the “decrease of production of E-rosettes after application of Taxol” value in the experiment on T-lymphocytes (Experiment 3, injected day 2, determined 7th day) amounted to 16%.

As to `N.N.[Cl-].[Cl-].[OH-].[OH-].[Pt+4]` [oxoplatin], the “decrease of production of E-rosettes after application of oxoplatin” value in the experiment on T-lymphocytes (Experiment 1, i.p., determined 5 days later) was determined as 27.4%.

On to Phytohemagglutinin [PHA], for which the “% CD69+ cells” value is given as 83.54% with CD4+ T lymphocytes (Mean of 6 donors); 78.46% with CD4+ T lymphocytes (donor five); 87.87% in the experiment on CD4+ T lymphocytes (donor four); 89.58% in the experiment with CD4+ T lymphocytes (donor one); 90.03% in the experiment with CD4+ T lymphocytes (donor six); 86.39% in the experiment on CD4+ T lymphocytes (donor three). For the same compound, the “% CD69+ cells” value in the experiment with CD4+ T lymphocytes (donor two) is given as 68.91%. Also, the “% CD69+/IFNg+ cells” value was 4.97±5.75% and 4.97% in the experiment with CD4+ T lymphocytes (Mean of 6 donors); 2.45% in the experiment on CD4+ T lymphocytes (donor five); 2.87% with CD4+ T lymphocytes (donor four); 0.49% with CD4+ T lymphocytes (donor one); 16.42% in the experiment on CD4+ T lymphocytes (donor six); 4.39% in the experiment with CD4+ T lymphocytes (donor three). In addition, the “% CD69+/IFNg+ cells” value in the experiment on CD4+ T lymphocytes (donor two) was determined as 3.18%. Also, the “PHA induced % CD69+ cells” value with CD4+ T lymphocytes (after 4 hours stimulation, healthy individuals) is “over 80%”. Moreover, the “Stimulation index (PBMC proliferation)” value was determined as 184.5±142.8 in the experiment on human PBMC (Mean of donors, 3 days (72 hours)); 184.33 with human PBMC (Mean of donors, 3 days (72 hours), listed as PHA(+)); 51.97 in the experiment with human PBMC (Mean of donors, 6 days); 77.3 in the experiment on human PBMC (donor four, 3 days); 61.09 in the experiment with human PBMC (donor four, 6 days); 417 with human PBMC (donor one, 3 days). Moreover, the “Stimulation index (PBMC proliferation)” value in the experiment with human PBMC (donor one, 6 days) worked out at 33; with human PBMC (donor six, 3 days), 114.65; with human PBMC (donor six, 6 days) it was 25.11; in the experiment on human PBMC (donor three, 3 days) it was 87.38; in the experiment on human PBMC (donor three, 6 days) it was 119.9; in the experiment with human PBMC (donor two, 3 days) it was 225.3. In addition, the “Stimulation index (PBMC proliferation)” value with human PBMC (donor two, 6 days) was determined as 20.74.
